Experimental data as given in patent US11141394B2, “Carbon dioxide external preparation” (priority 2017, dated 2021).

Columns and labels:
[1] = tested on: pain of de Quervain syndrome; assay: Pain relief test (de Quervain syndrome); assay type: in vivo, human; conditions: person one; oral, earlier treatment
Method: This test was conducted by a physical therapist. subject one was a person who has been suffering from de Quervain syndrome. Oral anti-inflammatory loxoprofen sodium had shown no effect on the pain of de Quervain syndrome. They had been suffering from sharp pain in the short rollical extensor muscle and the […] of the radial aspect of the hand joint. […] Therefore, pain relief effect of a carbon dioxide external preparation of the present invention was obvious.

[2] = tested on: pain and knee stiffness of rheumatism; assay: Pain and knee stiffness of rheumatism improvement test; assay type: in vivo, human; conditions: person two; oral, earlier treatment
Text: Therefore, pain and knee stiffness of rheumatism improvement effect of a carbon dioxide external preparation of the present invention was obvious.

CC(C(=O)O)c1ccc(CC2CCCC2=O)cc1 (centres unmarked) [loxoprofen sodium]
effect on the pain of de Quervain syndrome [1]: no effect | pain and knee stiffness of rheumatism [2]: had not been improved
